US12492188B2, “1H-benzo[D]imidazole derivatives as TLR9 inhibitors for the treatment of fibrosis” (BRISTOL-MYERS SQUIBB COMPANY, priority 2020, dated 2025)
pIC50: −log10 of the molar value. Like-named read-outs stand apart in the source and are kept apart here.

Molecular target: T1, human TLR9 (Homo sapiens, UniProt Q9NR96)
T1 construct: host or cells: HEK-Blue cells (HEK293-derived reporter line)
T1 sequence (Q9NR96 26-1032): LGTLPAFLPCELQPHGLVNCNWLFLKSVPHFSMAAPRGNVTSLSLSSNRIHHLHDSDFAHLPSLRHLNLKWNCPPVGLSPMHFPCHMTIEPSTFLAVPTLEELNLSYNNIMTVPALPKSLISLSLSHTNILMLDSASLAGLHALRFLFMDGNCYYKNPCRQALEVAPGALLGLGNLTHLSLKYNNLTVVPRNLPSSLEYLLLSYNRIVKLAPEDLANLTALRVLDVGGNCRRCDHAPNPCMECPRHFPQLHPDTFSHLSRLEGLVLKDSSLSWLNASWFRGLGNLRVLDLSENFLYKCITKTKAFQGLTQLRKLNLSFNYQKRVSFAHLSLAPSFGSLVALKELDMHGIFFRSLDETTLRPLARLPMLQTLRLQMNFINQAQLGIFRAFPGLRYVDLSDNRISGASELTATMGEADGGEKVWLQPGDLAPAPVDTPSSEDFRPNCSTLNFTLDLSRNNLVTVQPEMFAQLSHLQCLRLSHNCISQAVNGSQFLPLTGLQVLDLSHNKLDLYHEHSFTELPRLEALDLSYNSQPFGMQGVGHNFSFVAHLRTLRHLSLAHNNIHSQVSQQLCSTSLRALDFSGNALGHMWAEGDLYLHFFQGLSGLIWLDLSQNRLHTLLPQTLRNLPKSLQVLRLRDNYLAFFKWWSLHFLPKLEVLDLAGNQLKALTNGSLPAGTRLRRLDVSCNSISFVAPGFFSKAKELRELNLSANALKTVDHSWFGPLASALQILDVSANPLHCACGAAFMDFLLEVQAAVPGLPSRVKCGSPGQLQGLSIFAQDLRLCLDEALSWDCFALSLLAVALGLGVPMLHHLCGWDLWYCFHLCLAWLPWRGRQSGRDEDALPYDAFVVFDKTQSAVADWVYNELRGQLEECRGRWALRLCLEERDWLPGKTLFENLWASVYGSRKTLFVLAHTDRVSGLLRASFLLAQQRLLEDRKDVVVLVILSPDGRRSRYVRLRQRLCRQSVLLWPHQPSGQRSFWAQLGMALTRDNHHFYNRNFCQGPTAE
Experiment: TLR9 inhibition reporter assay (HEK-Blue cells, secreted embryonic alkaline phosphatase reporter)
Assay type: cell-based
Description: TLR7/8/9 Inhibition Reporter Assays
HEK-Blue™-cells (Invivogen) overexpressing human TLR7, TLR8 or TLR9 receptors were used for screening inhibitors of these receptors using an inducible SLAP (secreted embryonic alkaline phosphatase) reporter gene under the control of the […] minimal promoter fused to five NF-κB and AP-1-binding sites. Briefly, cells are seeded into Greiner 384 well plates (15000 cells per well for TLR7, 20,000 for TLR8 and 25,000 for TLR9) and then treated with test compounds in DMSO to yield a final dose response concentration range of 0.05 nM-50 μM. After a 30 minute compound pre-treatment at room temperature, the cells are then stimulated with a TLR7 ligand (gardiquimod at a final concentration of 7.5 μM), TLR8 ligand (R848 at a final concentration of 15.9 μM) or TLR9 ligand (ODN2006 at a final concentration of 5 nM) to activate NF-κB and AP-1 which induce the production of SLAP. After a 22 hour incubation at 37° C., […], SLAP levels are determined with the addition of HEK-Blue™ Detection reagent (Invivogen), a cell culture medium that allows for detection of SLAP, according to manufacturer's specifications. The percent inhibition is determined as the […] in the HEK-Blue signal present in wells treated with agonist plus DMSO alone compared to wells treated with a known inhibitor.

[1] = HEK-Blue cells overexpressing human TLR9, stimulated with ODN2006 5 nM, read-out: TLR 9 IC50
[2] = HEK-Blue human TLR9 reporter cells

SMILES	pIC50	pIC50 [1]	pIC50 [2]
Cc1cc(C2CCN(C3CC4(C3)CN(C3CCC3)C4)CC2)cc2c1nc(-c1ccc(S(C)(=O)=O)cc1)n2C [Example 140, 6-(1-(2-cyclobutyl-2-azaspiro[3.3]heptan-6-yl)piperidin-4-yl)-1,4-dimethyl-2-(4-(methylsulfonyl)phenyl)-1H-benzo[d]imidazole]	6.54	6.54	–
Cc1cc(C2CCN(C3CC4(C3)CN(CC(C)C)C4)CC2)cc2c1nc(-c1ccc(S(C)(=O)=O)cc1)n2C [Example 141, 6-(1-(2-isobutyl-2-azaspiro[3.3]heptan-6-yl)piperidin-4-yl)-1,4-dimethyl-2-(4-(methylsulfonyl)phenyl)-1H-benzo[d]imidazole]	6.60	6.61	–
Cc1cc(C2CCN(C3CC4(C3)CN(CC3CC3)C4)CC2)cc2c1nc(-c1ccc(S(C)(=O)=O)cc1)n2C [Example 142, 6-(1-(2-(cyclopropylmethyl)-2-azaspiro[3.3]heptan-6-yl)piperidin-4-yl)-1,4-dimethyl-2-(4-(methylsulfonyl)phenyl)-1H-benzo[d]imidazole]	7.17	7.17	–
Cc1cc(C2CCN(C3CC4(C3)CN(CC3CCC3)C4)CC2)cc2c1nc(-c1ccc(S(C)(=O)=O)cc1)n2C [Example 143, 6-(1-(2-(cyclobutylmethyl)-2-azaspiro[3.3]heptan-6-yl)piperidin-4-yl)-1,4-dimethyl-2-(4-(methylsulfonyl)phenyl)-1H-benzo[d]imidazole]	7.07	7.07	–
COc1ccc(-c2nc3c(C)cc(C4CCN(C5CC6CCC(C5)N6C(C)C)CC4)cc3n2C)cc1OC (stereo not shown) [Example 144, 2-(3,4-dimethoxyphenyl)-6-(1-(8-isopropyl-8-azabicyclo[3.2.1]octan-3-yl)piperidin-4-yl)-1,4-dimethyl-1H-benzo[d]imidazole]	7.21	7.21	–
COc1ccc(-c2nc3c(C)cc(C4CCN(C5CC6CCC(C5)N6C(C)C)CC4)cc3n2C)cc1OC (stereo not shown) [Example 145, 2-(3,4-dimethoxyphenyl)-6-(1-(8-isopropyl-8-azabicyclo[3.2.1]octan-3-yl)piperidin-4-yl)-1,4-dimethyl-1H-benzo[d]imidazole]	7.62	7.62	–
COc1ccc(-c2nc3c(C)cc(C4CCN(C5CC6CCC(C5)N6C5CCC5)CC4)cc3n2C)cc1OC (stereo not shown) [Example 146, 6-(1-(8-cyclobutyl-8-azabicyclo[3.2.1]octan-3-yl)piperidin-4-yl)-2-(3,4-dimethoxyphenyl)-1,4-dimethyl-1H-benzo[d]imidazole]	7.15	7.15	–
COc1ccc(-c2nc3c(C)cc(C4CCN(C5CC6CCC(C5)N6C5CCC5)CC4)cc3n2C)cc1OC (stereo not shown) [Example 147, 6-(1-(8-cyclobutyl-8-azabicyclo[3.2.1]octan-3-yl)piperidin-4-yl)-2-(3,4-dimethoxyphenyl)-1,4-dimethyl-1H-benzo[d]imidazole]	6.70	6.70	–
COc1ccc(-c2nc3c(C)cc(C4CCN(C5CC6CCC(C5)N6CC5CC5)CC4)cc3n2C)cc1OC (stereo not shown) [Example 148, 6-(1-(8-(cyclopropylmethyl)-8-azabicyclo[3.2.1]octan-3-yl)piperidin-4-yl)-2-(3,4-dimethoxyphenyl)-1,4-dimethyl-1H-benzo[d]imidazole]	7.47	7.47	–
COc1ccc(-c2nc3c(C)cc(C4CCN(C5CC6CCC(C5)N6CC5CC5)CC4)cc3n2C)cc1OC (stereo not shown) [Example 149, 6-(1-(8-(cyclopropylmethyl)-8-azabicyclo[3.2.1]octan-3-yl)piperidin-4-yl)-2-(3,4-dimethoxyphenyl)-1,4-dimethyl-1H-benzo[d]imidazole]	7.33	7.33	–
Cc1cc(-c2ccc(N3CCN(CC(C)C)CC3)cc2)cc2c1nc(-c1ccc(S(C)(=O)=O)cc1)n2C [Example 170, 6-(4-(4-isobutylpiperazin-1-yl)phenyl)-1,4-dimethyl-2-(4-(methylsulfonyl)phenyl)-1H-benzo[d]imidazole]	5.36	5.35	–
Cc1cc(-c2ccc(N3CCN(CC4CC4)CC3)cc2)cc2c1nc(-c1ccc(S(C)(=O)=O)cc1)n2C [Example 171, 6-(4-(4-(cyclopropylmethyl)piperazin-1-yl)phenyl)-1,4-dimethyl-2-(4-(methylsulfonyl)phenyl)-1H-benzo[d]imidazole]	6.19	6.19	–
Cc1cc(-c2ccc(N3CCN(CC4CCC4)CC3)cc2)cc2c1nc(-c1ccc(S(C)(=O)=O)cc1)n2C [Example 172, 6-(4-(4-(cyclobutylmethyl)piperazin-1-yl)phenyl)-1,4-dimethyl-2-(4-(methylsulfonyl)phenyl)-1H-benzo[d]imidazole]	5.74	5.75	–
COCCN1CCN(c2ccc(-c3cc(C)c4nc(-c5ccc(S(C)(=O)=O)cc5)n(C)c4c3)cc2)CC1 [Example 173, 6-(4-(4-(2-methoxyethyl)piperazin-1-yl)phenyl)-1,4-dimethyl-2-(4-(methylsulfonyl)phenyl)-1H-benzo[d]imidazole]	5.96	5.95	–
COc1ccc(-c2nc3ccc(C4CCN(C5CCN(C6CC6)CC5)CC4)c(F)c3[nH]2)cc1OC [Example 175, 6-(1′-cyclopropyl-[1,4′-bipiperidin]-4-yl)-2-(3,4-dimethoxyphenyl)-7-fluoro-1H-benzo[d]imidazole]	6.28	6.28	–
Cc1cc(-c2ccc(N3CCN(C4CCOCC4)CC3)cc2)cc2c1nc(-c1ccc(S(C)(=O)=O)cc1)n2C [Example 176, 1,4-dimethyl-2-(4-(methylsulfonyl)phenyl)-6-(4-(4-(tetrahydro-2H-pyran-4-yl)piperazin-1-yl)phenyl)-1H-benzo[d]imidazole]	6.17	6.17	–
CS(=O)(=O)c1ccc(-c2nc3c(F)cc(C4CCN(C5CCN(CC6CC6)CC5)CC4)cc3n2C2CC2)cc1 [Example 320, 1-cyclopropyl-6-(1′-(cyclopropylmethyl)-[1,4′-bipiperidin]-4-yl)-4-fluoro-2-(4-(methylsulfonyl)phenyl)-1H-benzo[d]imidazole]	–	7.11	7.11
Cc1c(C2CCN(C3CCN(CC(C)C)CC3)CC2)ccc2nc(-c3ccc(S(C)(=O)=O)cc3)n(C)c12 [Example 330, 6-(1′-isobutyl-[1,4′-bipiperidin]-4-yl)-1,7-dimethyl-2-(4-(methylsulfonyl)phenyl)-1H-benzo[d]imidazole]	–	5.86	5.85
Cc1cc2nc(-c3ccc(S(C)(=O)=O)cc3)n(C)c2cc1C1CCN(C2CCN(CC(C)C)CC2)CC1 [Example 331, 6-(1′-isobutyl-[1,4′-bipiperidin]-4-yl)-1,5-dimethyl-2-(4-(methylsulfonyl)phenyl)-1H-benzo[d]imidazole]	–	6.84	6.85
Cc1cc(C2CCN(C3CC4CCC(C3)N4CC3CC3)CC2)cc2c1nc(-c1ccc(S(C)(=O)=O)c(F)c1)n2C (stereo not shown) [Example 340, 6-(1-(8-(cyclopropylmethyl)-8-azabicyclo[3.2.1]octan-3-yl)piperidin-4-yl)-2-(3-fluoro-4-(methylsulfonyl)phenyl)-1,4-dimethyl-1H-benzo[d]imidazole]	–	7.08	7.08
